The numbers were not newly measured in patent US10029078B2, “Pancreas perfusion apparatus, method for controlling same, and method for pancreas perfusion” (KOSEI ADVANCE CO., LTD., priority 2013, dated 2018), which cites them from elsewhere.

The subject of the data set is unresectable pancreatic cancer. Conditions: patients with unresectable pancreatic cancer, systemic chemotherapy.

Turning to `Nc1ccn([C@@H]2O[C@H](CO)[C@@H](O)C2(F)F)c(=O)n1` [gemcitabine], the median survival time result is given as “approximately 6 months” and the response rate result is reported as “approximately 10%”.
